Results: PubChem BioAssay AID1549 (Sanford-Burnham Center for Chemical Genomics, 2009)
Calls of active or inactive are those of the source. How the calls were made is not given here.

The compounds below were run against Influenza A virus M2 proton channel (A/TW/4845/1999 H1N1) (assay: NMR binding screen, influenza A virus M2 proton channel, Kd (AID 1549)). Settings: M2 protein.
`CC(=O)Oc1cc2c(c(C)c1OC(C)=O)CC=C1[C@@]2(C)CC[C@@]2(C)C3C[C@](C)(C(=O)O)CC[C@]3(C)CC[C@]12C` (stereo partly specified) was tested, and the Kd was > 4 mM (inactive). `NCCCCNCCCN` was tested, and the Kd was > 4 mM (inactive). In the case of `O=C(O)Cn1c(C(F)(F)F)nc2ccccc21`, the Kd is reported as > 4 mM (inactive). With `O=C(c1ccccc1-c1ccccc1)N1CCOCC1` the Kd was > 4 mM (inactive). For `O=C(O)CC1Sc2ccccc2NC1=O` (stereo unspecified), the Kd was > 4 mM (inactive). In the case of `COc1ccc2c(c1)OC/C(=C/c1ccc(O)c(O)c1)C2=O`, the Kd is reported as > 4 mM (inactive). For `CN(C)C(=O)Oc1cccc(-c2nnco2)c1`, the Kd was > 4 mM (inactive). `Cc1ccc(C(=O)Nc2nnc(-c3ccncc3)s2)o1` was tested, and the Kd was > 4 mM (inactive). `CC(=O)O[C@@H]1CC2C(C)(C)[C@H](O)C=C[C@]2(C)C2CC[C@]3(C)C(=CC(=O)O[C@H]3c3ccoc3)[C@@]21C` (stereo partly specified) was tested, and the Kd was > 4 mM (inactive). In the case of `COc1ccc(N2C(=O)CCC2=O)c(OC)c1`, the Kd is reported as > 4 mM (inactive). In the case of `CC1(C)C2C[C@@H](O)[C@]3(C)C(CC[C@@]4(C)[C@H](c5ccoc5)OC(=O)[C@H]5O[C@]543)[C@@]2(C)[C@@H](O)C[C@H]1O` (stereo partly specified), the Kd is reported as > 4 mM (inactive). With `Cc1nnc(SCC(=O)NC2CCCC2)[nH]c1=O` the Kd was > 4 mM (inactive). `NCCc1nc2ccccc2[nH]1` was tested, and the Kd was > 4 mM (inactive). `C[C@H]1O[C@@H](O[C@H]2[C@@H](O)C[C@H](O[C@H]3[C@@H](O)C[C@H](O[C@H]4CC[C@]5(C)C6CC[C@]7(C)[C@@H](C8=CC(=O)OC8)CC[C@]7(O)C6CC[C@@H]5C4)O[C@@H]3C)O[C@@H]2C)C[C@H](O)[C@@H]1O` (stereo partly specified) was tested, and the Kd was > 4 mM (inactive). For `NC(=O)CSc1ncnc2ccccc12`, the Kd was > 4 mM (inactive). `COC(=O)c1noc(C)c1C(C)=O` was tested, and the Kd was > 4 mM (inactive). In the case of `COc1nc(N2CCOCC2)nc(N)c1[N+](=O)[O-]`, the Kd is reported as > 4 mM (inactive). `Cc1csc2nc(N)nn12` was tested, and the Kd was > 4 mM (inactive). For `NC(=O)CN1CCCCCC1=O`, the Kd was > 4 mM (inactive). For `CC(=O)Nc1cc(C(N)=O)cc(C(N)=O)c1`, the Kd was > 4 mM (inactive). In the case of `S=C(NC1=NCCS1)Nc1ccccc1`, the Kd is reported as > 4 mM (inactive). In the case of `OCc1ccc(-c2ccccn2)s1`, the Kd is reported as > 4 mM (inactive). In the case of `COc1ccc(Cl)cc1NC(=O)C(N)=O`, the Kd is reported as > 4 mM (inactive). With `c1ccc2c(c1)CN1CCCC1=N2` the Kd was > 4 mM (inactive). In the case of `O=C1NC(=O)/C(=C\c2ccncc2)S1`, the Kd is reported as > 4 mM (inactive). `Cc1cc(N2CCCC2=O)c(N)cc1N` was tested, and the Kd was > 4 mM (inactive). For `Oc1ccc(C(=S)N2CCCCC2)cc1Cl`, the Kd was > 4 mM (inactive). `O=C1CSC2=NCCCN12` was tested, and the Kd was > 4 mM (inactive). `CCn1c(C)c(C(C)=O)c(N2CCN(C)CC2)nc1=S` was tested, and the Kd was > 4 mM (inactive). With `CC(=O)N1CCc2cc(NC(=O)c3ccc(C)cc3)ccc21` the Kd was > 4 mM (inactive). In the case of `C=CCn1c(N)c(C(=O)N2CCOCC2)sc1=S`, the Kd is reported as > 4 mM (inactive). For `Cc1nc2ccccc2c(=O)n1-c1cccc(O)c1`, the Kd was > 4 mM (inactive). With `S=C(c1ccc(N2CCOCC2)cc1)N1CCCCC1` the Kd was > 4 mM (inactive). In the case of `O=c1c(-c2ccco2)[n+]([O-])c2ccccc2n1O`, the Kd is reported as > 4 mM (inactive). `Oc1ccc2nonc2c1` was tested, and the Kd was > 4 mM (inactive). With `CC(C)(O)[C@@H]1Cc2cc3ccc(=O)oc3cc2O1` the Kd was > 4 mM (inactive). `O=C(Nc1ccccc1)C(=O)NC1CC1` was tested, and the Kd was > 4 mM (inactive). With `O=C1C=C(O)c2ccccc2C1=O` the Kd was > 4 mM (inactive). For `CN1CCN(S(=O)(=O)c2ccc(=O)[nH]c2)CC1`, the Kd was > 4 mM (inactive). `CN1CCN(C(=O)C2CCCNC2)CC1` (stereo unspecified) was tested, and the Kd was > 4 mM (inactive). With `Cc1ccccc1-n1c(-c2cccnc2)n[nH]c1=S` the Kd was > 4 mM (inactive). For `CN1CCc2c(sc(N)c2C#N)C1`, the Kd was > 4 mM (inactive). With `Cc1oc(-c2ccccc2)nc1CCO` the Kd was > 4 mM (inactive). With `O=C1C2CCCCC2C(=O)N1c1ccc(O)cc1` (stereo unspecified) the Kd was > 4 mM (inactive). With `NC(=O)CSc1nnc2ccc3ccccc3n12` the Kd was > 4 mM (inactive). For `O=C(Nc1ccccc1C(F)(F)F)N1CCCCCC1`, the Kd was > 4 mM (inactive). `OCC1CCN(Cc2ccccc2)CC1` was tested, and the Kd was > 4 mM (inactive). `O=C(OCc1c(Cl)cccc1Cl)c1cnccn1` was tested, and the Kd was > 4 mM (inactive). `Cc1ccccc1-n1c(-c2ccncc2)n[nH]c1=S` was tested, and the Kd was > 4 mM (inactive). For `Cc1ccc2nc(SCCC#N)nc(C)c2c1`, the Kd was > 4 mM (inactive). `Cc1cc(N)n(-c2ccccc2)n1` was tested, and the Kd was > 4 mM (inactive). With `OC(CCl)c1ccc(-n2cncn2)cc1` (stereo unspecified) the Kd was > 4 mM (inactive). For `CN1C(=O)c2ccc(N3CCCC3)cc2C1=O`, the Kd was > 4 mM (inactive). With `Cc1n[nH]c(C)c1NC(=O)c1cccc(F)c1` the Kd was > 4 mM (inactive). With `Cc1ccc(CCNc2ccccc2)c[n+]1[O-]` the Kd was > 4 mM (inactive). `COC1=CC(=O)C[C@@H](C)[C@]12Oc1c(Cl)c(OC)cc(OC)c1C2=O` was tested, and the Kd was > 4 mM (inactive). `C/C=C1\[C@H]2C=C(C)C[C@]1(N)c1ccc(=O)[nH]c1C2` was tested, and the Kd was > 4 mM (inactive). In the case of `OCCNc1ccccn1`, the Kd is reported as > 4 mM (inactive). In the case of `COc1ccc(NC(=O)c2ccc[n+]([O-])c2)cc1`, the Kd is reported as > 4 mM (inactive). For `CNC(=O)c1c(O)c2ccccc2[nH]c1=O`, the Kd was > 4 mM (inactive). In the case of `[O-][n+]1cc(O)c(CN2CCOCC2)c2ccccc21`, the Kd is reported as > 4 mM (inactive). In the case of `Nc1c2c3c(sc2nc(=O)n1N)CCCC3`, the Kd is reported as > 4 mM (inactive). `O=C(c1ncc[nH]1)c1ccccc1C(=O)N1CCOCC1` was tested, and the Kd was > 4 mM (inactive). `COc1cc2occc2c2oc(=O)ccc12` was tested, and the Kd was > 4 mM (inactive). For `O=c1ccnc(Nc2ccccc2O)[nH]1`, the Kd was > 4 mM (inactive). With `Cc1c(CO)cnn1-c1ccc(F)cc1` the Kd was > 4 mM (inactive). `C[C@@H]1O[C@@H](O[C@H]2[C@@H](Oc3cc(O)c4c(c3)O[C@H](c3ccc(O)cc3)CC4=O)O[C@H](CO)[C@@H](O)[C@@H]2O)[C@H](O)[C@H](O)[C@H]1O` was tested, and the Kd was > 4 mM (inactive). In the case of `CC(=O)Nc1ccc(NC2SC(=O)NC2=O)cc1` (stereo unspecified), the Kd is reported as > 4 mM (inactive). `COc1cc(OC)c2c(=O)c(O)c(-c3ccc(OC)c(OC)c3)oc2c1` was tested, and the Kd was > 4 mM (inactive). In the case of `CC(=O)OCC(OC(C)=O)C(OC(C)=O)C(OC(C)=O)C(OC(C)=O)C(COC(C)=O)OC(C)=O` (stereo unspecified), the Kd is reported as > 4 mM (inactive). For `O=C(O)c1ccc2snnc2c1`, the Kd was > 4 mM (inactive). In the case of `S=c1[nH]c2cccnc2[nH]1`, the Kd is reported as > 4 mM (inactive). For `CC(=O)N1CC2(C)CN(C(C)=O)CC(C)(C1)C2`, the Kd was > 4 mM (inactive). `Cc1cccc(-c2nnc(-c3ccc(N)cc3)o2)c1` was tested, and the Kd was > 4 mM (inactive). In the case of `COc1cc2[nH]c(=S)n(C)c(=O)c2cc1OC`, the Kd is reported as > 4 mM (inactive). With `Nn1cnn2c(SCc3ccccc3)nnc12` the Kd was > 4 mM (inactive). `Nc1ccc(CN2CCOCC2)cc1` was tested, and the Kd was > 4 mM (inactive). With `CC(=O)NC(=S)Nc1ccccc1C` the Kd was > 4 mM (inactive). For `Cc1ccc(SCc2nc(-c3ccncc3)no2)cc1`, the Kd was > 4 mM (inactive). For `Cn1nc(C(=O)NC2CCCCC2)c2ccccc2c1=O`, the Kd was > 4 mM (inactive). For `CC(=O)Nc1ccc(NC(C)=O)c(C(F)(F)F)c1`, the Kd was > 4 mM (inactive). `CN(C)C(=O)Nc1ccc2c(c1)nnn2C` was tested, and the Kd was > 4 mM (inactive). For `Cc1cc(C)c(C(N)=O)c(=S)[nH]1`, the Kd was > 4 mM (inactive). `COC(=O)c1ccccc1C` was tested, and the Kd was > 4 mM (inactive). `CC(=O)Nc1ccc(S(=O)(=O)NC(N)=O)cc1` was tested, and the Kd was > 4 mM (inactive). With `O=C1c2cccc3cc(S(=O)(=O)O)cc(c23)C(=O)N1O` the Kd was > 4 mM (inactive). In the case of `CCOC(=O)c1c(C)cc(O)c(C=O)c1O`, the Kd is reported as > 4 mM (inactive). With `Cc1ccc(N2C(=O)CC(Sc3ncn[nH]3)C2=O)cc1` (stereo unspecified) the Kd was > 4 mM (inactive). For `Cc1nnc(SCC(=O)Nc2ccccc2)[nH]c1=O`, the Kd was > 4 mM (inactive). For `Nc1nc(NCc2ccco2)nn1-c1ccccc1`, the Kd was > 4 mM (inactive). `O=C(CC1Nc2ccccc2NC1=O)Nc1ccc(O)cc1` (stereo unspecified) was tested, and the Kd was > 4 mM (inactive). In the case of `O=C(O)c1cc(O)c2c(c1)[C@@H]([C@H]1c3cc(C(=O)O)cc(O)c3C(=O)c3c(O[C@H]4O[C@H](CO)[C@@H](O)[C@H](O)[C@H]4O)cccc31)c1cccc(O[C@H]3O[C@H](CO)[C@@H](O)[C@H](O)[C@H]3O)c1C2=O`, the Kd is reported as > 4 mM (inactive). With `O=C(Nc1ccc(Cl)cn1)c1cnn2cccnc12` the Kd was > 4 mM (inactive). With `COc1ccc2cc1Oc1ccc(cc1)C[C@H]1c3c(cc4c(c3Oc3cc5c(cc3OC)CCN(C)[C@@H]5C2)OCO4)CCN1C` the Kd was > 4 mM (inactive). `Cc1c(/C=N\n2cnnc2)c2ccccc2n1C` was tested, and the Kd was > 4 mM (inactive). With `Cc1nn(C)c(N2CCOCC2)c1N` the Kd was > 4 mM (inactive). In the case of `CC(C)CCCC1(C)C=Cc2c(O)c3c(c(CCC(C)C)c2O1)OC12C(CC4CC1C(C)(C)OC2(CCC(C)C(=O)O)C4O)C3=O` (stereo unspecified), the Kd is reported as > 4 mM (inactive). In the case of `Cc1cc(C(=O)NCc2cccs2)cs1`, the Kd is reported as > 4 mM (inactive). For `COc1ccc(-c2cc3nc4n(c(=O)c3s2)CCC4)cc1`, the Kd was > 4 mM (inactive). With `O=C(NCc1ccccn1)c1ccc(Cl)cc1Cl` the Kd was > 4 mM (inactive). In the case of `N#CCCn1ccnc1-c1ccccc1`, the Kd is reported as > 4 mM (inactive). In the case of `S=C(NC1CC1)NN1CCOCC1`, the Kd is reported as > 4 mM (inactive). With `CNC(=O)c1cc2cccc(OC)c2oc1=O` the Kd was > 4 mM (inactive). For `O=C(Cn1cnc2ccccc2c1=O)N1CCOCC1`, the Kd was > 4 mM (inactive). In the case of `OCc1c[nH]c2ccccc12`, the Kd is reported as > 4 mM (inactive). `O=NN1C(=O)c2ccccc2C1=O` was tested, and the Kd was > 4 mM (inactive). In the case of `CC(C)=CCOc1cc2oc(=O)ccc2cc1O`, the Kd is reported as > 4 mM (inactive). `COc1ccc(/C=C2/NC(=S)NC2=O)cc1` was tested, and the Kd was > 4 mM (inactive). `O=C(NN=C1CCCC1)c1ccncc1` was tested, and the Kd was > 4 mM (inactive). In the case of `CC(=O)c1nnc2cc(C)nn2c1C`, the Kd is reported as > 4 mM (inactive). `O=C(Nc1ccon1)c1ccc2c(c1)OCO2` was tested, and the Kd was > 4 mM (inactive). With `NC(=O)CSCc1c(Cl)cccc1Cl` the Kd was > 4 mM (inactive). `Cc1ccccc1CSc1nnc(C)n1N` was tested, and the Kd was > 4 mM (inactive). In the case of `Cc1occc1C(=O)NCc1ccncc1`, the Kd is reported as > 4 mM (inactive). With `Cc1nnc(N2CCc3ccccc3C2)[nH]c1=O` the Kd was > 4 mM (inactive). For `CSc1nnc(CN2CCSCC2)n1C`, the Kd was > 4 mM (inactive).
